# Laboratory results published in US5753661A, “Fused benzo compounds containing a nitrogen heterocycle for the treatment of central nervous system disorders” (priority 1992, dated 1998).
# Molecular target: T1, 5-HT1A receptor (Rattus norvegicus, UniProt P19327)
# T1 sequence (P19327 1-422): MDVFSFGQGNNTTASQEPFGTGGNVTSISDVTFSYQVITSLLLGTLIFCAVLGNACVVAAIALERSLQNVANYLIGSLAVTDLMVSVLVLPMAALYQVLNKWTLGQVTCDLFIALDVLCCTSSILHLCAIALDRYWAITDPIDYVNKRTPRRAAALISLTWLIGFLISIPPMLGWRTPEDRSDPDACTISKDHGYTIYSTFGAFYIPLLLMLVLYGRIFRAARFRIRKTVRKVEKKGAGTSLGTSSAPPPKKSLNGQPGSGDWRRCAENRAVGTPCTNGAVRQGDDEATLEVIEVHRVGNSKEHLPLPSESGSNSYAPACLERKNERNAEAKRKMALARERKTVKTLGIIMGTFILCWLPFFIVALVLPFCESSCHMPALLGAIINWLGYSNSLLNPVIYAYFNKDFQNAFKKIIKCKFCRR
# Test: Inhibition of 3H-8-OH-DPAT binding to serotonin 5-HT1A receptors in rat brain in vitro
# Parameters: 5-HT1A receptors in membranes from rat brain minus cerebellum; from tissue; host or cells: rat brain minus cerebellum, membranes
# Conditions: not given
# Method: Inhibition of ^3 H-8-OH-DPAT Binding to Serotonin 5-HT1A Receptors in Rat Brain in vitro.
# By this method the inhibition by drugs of the binding of the 5-HT1A agonist 3H-8-OH-DPAT (1 nM) to 5-HT1A receptors in membranes from rat brain minus cerebellum is determined in vitro . Accordingly, this is a test for affinity for the 5-HT1A receptor. The assay was performed as described by Hyttel et al., Drug Dev. Res. 1988, 15, 389-404.
row,SMILES,IC50
1,"CC1(C)Cc2cccc(C3=CCN(CCCCN4CCN(C5CCCCC5)C4=O)CC3)c2O1 [Compound 10a, 1-Cyclohexyl-3-[4-[4-(2,3-dihydro-2,2-dimethylbenzofuran-7-yl)-1,2,3,6-tetrahydropyrid-1-yl]-1-butyl]-2-imidazolidinone]",1.2 nM

# Same assay, conditions: 3H-8-OH-DPAT 1 nM; membranes from rat brain minus cerebellum; read-out: IC50, 3H 8-OH-DPAT binding
row,SMILES,IC50
1,CC1(C)Cc2c(N3CCN(CCCN4CCN(C5CCCCC5)C4=O)CC3)ccc(Cl)c2O1 [Compound 2qq],300 nM
2,"O=C1N(CCN2CCN(c3cccc4c3ccn4-c3ccc(F)cc3)CC2)CCN1C1CCCC1 [Compound 7a, 1-Cyclopentyl-3-[2-[4-[1-(4-fluorophenyl)-4-indolyl]-1-piperazinyl]ethyl]-2-imidazolidinone]",51000 nM
3,"O=C1N(CCCCN2CCN(c3cc(Cl)cc4cc(-c5ccccc5)oc34)CC2)CCN1C1CCCCC1 [Compound 2hh, 1-[4-[4-(5-Chloro-2-phenylbenzofuran-7-yl)-1-piperazinyl]-1-butyl]-3-cyclohexyl-2-imidazolidinone]",130 nM
4,"CCOC(=O)c1cc2cccc(N3CCN(CCN4CCN(c5ccccc5)C4=O)CC3)c2[nH]1 [Compound 2j, Ethyl 7-[4-[2-(3-phenyl-2-imidazoidin-2-on-1-yl)ethyl]-1-piperazinyl]-2-indolyl carboxylate]",53 nM
5,"CC1(C)Cc2cccc(N3CCN(CCCN4CCN(C5CCCCC5)C4=O)CC3)c2O1 [Compound 2kk, 1-Cyclohexyl-3-[3-[4-(2,3-dihydro-2,2-dimethylbenzofuran-7-yl)-1-piperazinyl]-1-propyl]-2-imidazolidinone]",5.7 nM
6,"O=C1N(CCN2CCN(c3cccc4cnsc34)CC2)CCN1c1ccccc1 [Compound 2x, 1-[2-[4-(1,2-Benzisothiazol-7-yl)-1-piperazinyl]ethyl]-3-phenyl-2-imidazolidinone]",75 nM
7,CC1(C)Cc2cc(F)cc(N3CCN(CCCCN4CCN(C5CCCCC5)C4=O)CC3)c2O1 [Compound 2mm],1.7 nM
8,"O=C1N(CCN2CCN(c3cccc4c3OCCO4)CC2)CCN1C12CC3CC(CC(C3)C1)C2 [Compound 2q, 1-Adamantyl-3-[2-[4-(1,4-benzodioxan-5-yl)-1-piperazinyl]ethyl]-2-imidazolidinone]",13 nM
9,CC1(C)COc2c(N3CCN(CCN4CCN(C5CCCC5)C4=O)CC3)cc(Cl)cc21 [Compound 2oo],44 nM
10,"CC1(C)Cc2cccc(N3CCN(CCCCN4CCN(C56CC7CC(CC(C7)C5)C6)C4=O)CC3)c2O1 [Compound 2gg, 1-Adamantyl-3-[4-[4-(2,3-dihydro-2,2-dimethylbenzofuran-7-yl)-1-piperazinyl]-1-butyl]-2-imidazolidinone]",2.8 nM
11,CC(C)(C)N1CCN(CCN2CCN(c3cccc4c3OCCO4)CC2)C1=O [Compound 2ee],43 nM
12,"CCN1CCN(CCN2CCN(c3cccc4c3OCCO4)CC2)C1=O [Compound 2l, 1-[2-[4-(1,4-Benzodioxan-5-yl)-1-piperazinyl]ethyl]-3ethyl-2-imidazolidinone]",72 nM
13,"O=C1N(CCN2CCN(c3cccc4cc[nH]c34)CC2)CCN1C1CCCC1 [Compound 2u, 1-Cyclopentyl-3-[2-[4-(7-indolyl)-1-piperazinyl]ethyl]-2-imidazolidinone]",110 nM
14,"O=C1N(CCN2CCN(c3cccc4ccsc34)CC2)CCN1C1CCCC1 [Compound 2aa, 1-[2-[4-Benzo[b]thiophen-7-yl-1-piperazinyl]ethyl]-3-cyclopentyl-2-imidazolidinone]",11 nM
15,"CS(=O)(=O)CCCN1CCN(c2cccc3c2OCC3)CC1 [Compound 1d, 1-(2,3-Dihydrobenzofuran-7-yl)-4-(3-methylsulfonyl-1-propyl)piperazine]",190 nM
16,"O=c1n(CCN2CCN(c3cccc4c3OCCO4)CC2)ccn1-c1ccccc1 [Compound 5b, 1-[3-[4-(1,4-Benzodioxan-5-yl)-1-piperazinyl]-ethyl]-1,3-dihydro-3-phenyl-2-imidazolone]",12 nM
17,"O=C1N(CCN2CCN(c3cccc4nsnc34)CC2)CCN1c1ccccc1 [Compound 2h, 4-[4-[2-(3-Phenylimidazolidin-2-on-1-yl)ethyl]-1-piperazinyl]-2,1,3-benzothiadiazole]",28 nM
18,"O=C1N(CCN2CCN(c3cccc4cc(-c5ccccc5)oc34)CC2)CCN1C1CCCC1 [Compound 14a, 1-Cyclopentyl-3-[2-[4-(2-phenylbenzofuran-7-yl)-1-piperazinyl]ethyl]-2-imidazolidinone]",9.7 nM
19,"CCN1CCN(CCCN2CCN(c3cccc4c3OCCO4)CC2)C1=O [Compound 4b, 1-[3-[4-(1,4-Benzodioxan-5-yl)-1-piperazinyl]-1-propyl]-3-ethyl-2-imidazolidinone]",40 nM

row,SMILES,IC50
1,"O=C1N(CCCN2CCN(c3cccc4c3OCCO4)CC2)CCN1Cc1ccccc1 [Compound 4a, 1-[3-[4-(1,4-Benzodioxan-5-yl)-1-piperazinyl]-1-propyl]-3-benzyl-2-imidazolidinone]",18 nM
2,CC1(C)COc2c(N3CCN(CCCCCCN4CCN(C5CCCC5)C4=O)CC3)cccc21 [Compound 14c],7.5 nM
3,"CC1(C)Cc2cccc(N3CCN(CCCCN4CCN(c5ccc(F)cc5)C4=O)CC3)c2O1 [Compound 2dd, 1-[4-[4-(2,3-Dihydro-2,2-dimethylbenzofuran-7-yl)-1-piperazinyl]-1-butyl]-3-(4-fluorophenyl)-2-imidazolidinone]",0.5 nM
4,"CC1(C)Cc2cccc(N3CCN(CCCCN4CCN(c5cccc6ccccc56)C4=O)CC3)c2O1 [Compound 2jj, 1-[4-[4-(2,3-Dihydro-2,2-dimethylbenzofuran-7-yl)-1-piperazinyl]-1-butyl]-3-(1-naphtyl)-2-imidazolidinone]",1.1 nM
5,"CC1(C)Cc2cc(F)cc(N3CCN(CCCCN4CCN(c5ccc(F)cc5)C4=O)CC3)c2O1 [Compound 2ll, 1-[4-[4-(2,3-Dihydro-2,2-dimethyl-5-fluorobenzofuran-7-yl)-1-piperazinyl]-1-butyl]-3-(4-fluorophenyl)-2-imidazolidinone]",10 nM
6,CC1(C)COc2c(N3CCN(CCN4CCN(C5CCCC5)C4=O)CC3)cccc21 [Compound 14b],38 nM
7,"O=C1N(CCN2CCN(c3cc(Cl)cc4cc(-c5ccccc5)oc34)CC2)CCN1C1CCCC1 [Compound 2ii, 1-[2-[4-(5-Chloro-2-phenylbenzofuran-7-yl)-1-piperazinyl]ethyl]-3-cyclopentyl-2-imidazolidinone]",300 nM
8,"O=c1n(CCCCN2CCN(c3cccc4c3OCCO4)CC2)c2ccccc2n1-c1ccc(F)cc1 [Compound 13a, 1-[4-[4-(1,4-Benzodioxan-5-yl)-1-piperazinyl]-1-butyl]-3-(4-fluorophenyl)-2(3H)-benzimidazolone]",22 nM
9,"CC1(C)Cc2cccc(C3CCN(CCCCN4CCN(C5CCCCC5)C4=O)CC3)c2O1 [Compound 11a, 1-Cyclohexyl-3-[4-[4-(2,3-dihydro-2,2-dimethylbenzofuran-7-yl)-1-piperidinyl]-1-butyl]-2-imidazolidinone]",3.5 nM
10,"O=C1N(CCN2CCN(c3cccc4c3OCC4)CC2)CCN1c1ccc(F)cc1 [Compound 2i, 1-[2-[4-(2,3-Dihydrobenzofuran-7-yl)-1-piperazinyl]ethyl]-3-(4-fluorophenyl)-2-imidazolidinone]",30 nM
11,"O=C1N(CCN2CCN(c3cccc4c3NCC4)CC2)CCN1C1CCCC1 [Compound 9a, 1-Cyclopentyl-3-[2-[4-(7-indolinyl)-1-piperazinyl]ethyl]-2-imidazolidinone]",230 nM
12,"CC1(C)Cc2cccc(N3CCN(CCCN4CCN(c5ccccc5)C4=O)CC3)c2O1 [Compound 2ff, 1-[3-[4-(2,3-Dihydro-2,2-dimethylbenzofuran-7-yl)-1-piperazinyl]-1-propyl]-3-phenyl-2-imidazolidinone]",6.6 nM
13,"O=C1N(CCN2CCN(c3cccc4[nH]ccc34)CC2)CCN1c1ccccc1 [Compound 2z, 1-[2-[4-(4-Indolyl)-1-piperazinyl]ethyl]-3-phenyl-2-imidazolidinone]",34 nM
14,"O=S(=O)(CCN1CCN(c2cccc3c2OCC3)CC1)C1CCCCC1 [Compound 6a, 1-(2-Cyclohexylsulfonyl-1-ethyl)-4-(2,3-dihydrobenzofuran-7-yl)piperazine]",220 nM
15,CC1(C)COc2c(N3CCN(CCCCCCN4CCN(C5CCCC5)C4=O)CC3)cc(Cl)cc21 [Compound 2pp],20 nM
16,"O=C1N(CCN2CCN(c3cccc4ccsc34)CC2)CCN1c1ccccc1 [Compound 2t, 1-[2-(4-Benzo[b]thiophen-7-yl-1-piperazinyl)ethyl]-3-phenyl-2-imidazolidinone]",15 nM
17,"CC1(C)Cc2cccc(N3CCN(CCCCCCN4CCN(C5CCCC5)C4=O)CC3)c2O1 [Compound 2nn, 1-Cyclopentyl-3-[6-[4-(2,3-dihydro-2,2-dimethylbenzofuran-7-yl)-1-piperazinyl]-1-hexyl]-2-imidazolidinone]",5.4 nM
18,"CCOC(=O)c1cc2c(N3CCN(CCN4CCN(C5CCCC5)C4=O)CC3)cccc2o1 [Compound 2cc, Ethyl [4-[4-[2-(3-cyclopentyl-2-imidazolidinon-1-yl)ethyl]-1-piperazinyl]-2-benzofuranyl] carboxylate]",83 nM
